Read-outs that look alike come from different tables or passages of the source.

This note sets out measurements from patent publication US9708336B2, “Metallo-beta-lactamase inhibitors” (priority 2014, dated 2017).

The test system of test [1] is Escherichia coli expressing NDM-1 (CLB30016). Briefly: Antibiotic potentiation activity: synergistic concentration (MITC95) with imipenem, OD600 growth. In kind it is cell-based. The note with it: (CLB30016, NDM-1), 95% growth inhibition. An outline of the steps: (§1)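 In 1.1× CAMHB, clinical isolates from overnight plates were challenged with test compound alongside imipenem at an assay concentration of 4 μg/ml, sometimes 1 μg/ml. Plates sat covered at 35 °C for 22–24 h prior to spectrophotometric reading.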

Test [2] deals with Klebsiella pneumoniae expressing VIM-1 (IHMA599644). Described as above. In kind it is cell-based. Particulars: Klebsiella pneumoniae IHMA599644 (VIM-1), 95% growth inhibition. The procedure, abridged:
as §1

For test [3], the system named is Serratia marcescens expressing IMP-1 (CL5741). The test is described as above. Particulars: Serratia marcescens CL5741 (IMP-1), 95% growth inhibition. The test is classed as cell-based. The procedure, abridged:
as §1

The target of another test is IMP-1 (Serratia marcescens, UniProt P52699). Put plainly: biochemical. The test is classed as biochemical. The note with it: IMP-1 enzyme, CCF2-FA substrate; read-out: IMP-1 IC50.
In a further test the target is NDM-1 (Klebsiella pneumoniae, UniProt C7C422). Put plainly: biochemical. In kind it is biochemical. The note with it: NDM-1 enzyme, CCF2-FA substrate; read-out: NDM-1 IC50.
Another test has as its target VIM-1 (Pseudomonas aeruginosa (strain ATCC 15692 / DSM 22644 / CIP 104116 / JCM 14847 / LMG 12228 / 1C / PRS 101 / PAO1), UniProt A0A0F7KYQ8). Briefly: Enzyme activity: determination of IC50, fluorescence assay with CCF2-FA substrate (VIM-1). In kind it is biochemical. The note with it: CCF2-FA substrate.
The mark [4] stands for this setting: VIM-1 enzyme, read-out: VIM-1 IC50.

Chain of IMP-1 (P52699 whole entry, looked up): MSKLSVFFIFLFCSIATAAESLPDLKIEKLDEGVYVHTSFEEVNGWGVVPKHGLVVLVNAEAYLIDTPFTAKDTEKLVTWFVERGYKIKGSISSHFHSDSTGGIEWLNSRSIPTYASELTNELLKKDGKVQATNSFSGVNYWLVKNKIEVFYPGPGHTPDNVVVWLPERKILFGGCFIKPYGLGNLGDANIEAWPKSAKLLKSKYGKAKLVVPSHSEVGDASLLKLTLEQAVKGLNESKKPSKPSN
Chain of NDM-1 (C7C422 whole entry, looked up, species assumed): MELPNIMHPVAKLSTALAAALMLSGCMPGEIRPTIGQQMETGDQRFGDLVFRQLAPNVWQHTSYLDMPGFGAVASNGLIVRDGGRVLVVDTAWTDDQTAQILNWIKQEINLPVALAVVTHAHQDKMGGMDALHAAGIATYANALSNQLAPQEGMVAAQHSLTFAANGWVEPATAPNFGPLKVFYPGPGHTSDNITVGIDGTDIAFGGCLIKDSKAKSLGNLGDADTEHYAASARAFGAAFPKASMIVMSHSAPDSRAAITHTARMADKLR

For orientation: IC50 means the point on the concentration scale where inhibition reaches its midpoint. As for `N=C(NC1CNC1)c1ccc(-c2ccc(C(F)(F)F)c(S(N)(=O)=O)c2-c2nn[nH]n2)cc1` [Example 563, N-(azetidin-3-yl)-3′-sulfamoyl-2′-(2H-tetrazol-5-yl)-4′-(trifluoromethyl)biphenyl-4-carboximidamide], in test [1], the “Escherichia coli MITC95” value is 3.125 µM. For the same compound, the “Klebsiella pneumoniae MITC95” value in test [2] turned out to be 3.125 µM. The “Serratia marcescens MITC95” value in test [3] is 6.25 µM. The IC50 on IMP-1 was determined as 45.9 nM; on NDM-1, 53.8 nM; on VIM-1 (setting [4]), 5.02 nM.

Turning to `N=C(NC1CCNC1)c1ccc(-c2ccc(C(F)(F)F)c(S(N)(=O)=O)c2-c2nn[nH]n2)cc1` (stereo not drawn) [Example 564, N-(pyrrolidin-3-yl)-3′-sulfamoyl-2′-(2H-tetrazol-5-yl)-4′-(trifluoromethyl)biphenyl-4-carboximidamide], the “Escherichia coli MITC95” value in test [1] was found to be 25 µM. Besides, in test [2], the “Klebsiella pneumoniae MITC95” value worked out at 50 µM. Also, in test [3], the “Serratia marcescens MITC95” value was 25 µM. For the same compound, the IC50 on IMP-1 was determined as 301 nM; on NDM-1, 262 nM; at VIM-1 (setting [4]), 36.3 nM.

For `N=C(NCCCN)c1ccc(-c2ccc(C(F)(F)F)c(S(N)(=O)=O)c2-c2nn[nH]n2)cc1` [Example 565, N-(3-aminopropyl)-3′-sulfamoyl-2′-(2H-tetrazol-5-yl)-4′-(trifluoromethyl)biphenyl-4-carboximidamide], the “Escherichia coli MITC95” value in test [1] came to 12.5 µM. Further, the “Klebsiella pneumoniae MITC95” value in test [2] turned out to be 12.5 µM. Moreover, the “Serratia marcescens MITC95” value in test [3] came out at 25 µM. Moreover, the IC50 at IMP-1 was found to be 200 nM; at NDM-1, 187 nM; at VIM-1 (setting [4]), 11.3 nM.

As to `Nc1nc2cc(F)cc(-c3ccc(C(F)(F)F)c(S(N)(=O)=O)c3-c3nnn[nH]3)c2[nH]1` [Example 566, 3-(2-amino-5-fluoro-1H-benzo[d]imidazol-7-yl)-2-(1H-tetrazol-5-yl)-6-(trifluoromethyl)benzenesulfonamide], the “Escherichia coli MITC95” value in test [1] is 0.7813 µM. In test [2], the “Klebsiella pneumoniae MITC95” value was found to be 3.125 µM. Besides, the “Serratia marcescens MITC95” value in test [3] was 3.125 µM. The figures for the IC50 on IMP-1, on NDM-1 and on VIM-1 (setting [4]) were 2.68 nM, 0.233 nM and 0.508 nM, respectively.

`Nc1nc2cc(C(F)(F)F)cc(-c3ccc(C(F)(F)F)c(S(N)(=O)=O)c3-c3nnn[nH]3)c2[nH]1` [Example 567]: in test [1], the “Escherichia coli MITC95” value was 3.125 µM. Moreover, the “Klebsiella pneumoniae MITC95” value in test [2] was found to be 6.25 µM. Further, the “Serratia marcescens MITC95” value in test [3] amounted to 6.25 µM. Further, the IC50 at IMP-1 was found to be 3.77 nM; on NDM-1, 0.299 nM; at VIM-1 (setting [4]) it was 0.225 nM.

For `Cc1ccc(-c2ccc(C(F)(F)F)c(S(N)(=O)=O)c2-c2nnn[nH]2)c2[nH]c(N)nc12` [Example 568, 3-(2-amino-4-methyl-1H-benzo[d]imidazol-7-yl)-2-(1H-tetrazol-5-yl)-6-(trifluoromethyl)benzenesulfonamide], in test [1], the “Escherichia coli MITC95” value was determined as 0.3906 µM. In test [2], the “Klebsiella pneumoniae MITC95” value stood at 1.563 µM. Besides, in test [3], the “Serratia marcescens MITC95” value turned out to be 1.563 µM. Further, the results for the IC50 at IMP-1, on NDM-1 and at VIM-1 (setting [4]) were 1.17 nM, 0.0983 nM and 0.161 nM, respectively.

For the compound `N#Cc1cc(-c2ccc(C(F)(F)F)c(S(N)(=O)=O)c2-c2nnn[nH]2)c2[nH]c(N)nc2c1` [Example 569, 3-(2-amino-5-cyano-1H-benzo[d]imidazol-7-yl)-2-(1H-tetrazol-5-yl)-6-(trifluoromethyl)benzenesulfonamide], the “Escherichia coli MITC95” value in test [1] came to 6.25 µM. Besides, in test [2], the “Klebsiella pneumoniae MITC95” value came out at 6.25 µM. Also, the “Serratia marcescens MITC95” value in test [3] came to 3.125 µM. Also, the IC50 on IMP-1 is 1.62 nM; on NDM-1, 0.215 nM; on VIM-1 (setting [4]), 0.309 nM.

Regarding `Nc1nc2nccc(-c3ccc(C(F)(F)F)c(S(N)(=O)=O)c3-c3nnn[nH]3)c2[nH]1` [Example 570, 3-(2-amino-1H-imidazo[4,5-b]pyridin-7-yl)-2-(1H-tetrazol-5-yl)-6-(trifluoromethyl)benzenesulfonamide], the “Escherichia coli MITC95” value in test [1] turned out to be 3.125 µM. Also, the “Klebsiella pneumoniae MITC95” value in test [2] amounted to 6.25 µM. Moreover, the “Serratia marcescens MITC95” value in test [3] is 6.25 µM. Moreover, the concentration for half-maximal inhibition (IC50) on IMP-1 was determined as 4.06 nM; at NDM-1, 0.33 nM; on VIM-1 (setting [4]), 0.49 nM.

On to `Cc1nc(N)ccc1Cc1cccc(S(N)(=O)=O)c1-c1nn[nH]n1` [Example 572, 3-((6-amino-2-methylpyridin-3-yl)methyl)-2-(2H-tetrazol-5-yl)benzenesulfonamide], for which the “Escherichia coli MITC95” value in test [1] turned out to be 0.5859 µM. Besides, in test [2], the “Klebsiella pneumoniae MITC95” value was determined as 6.25 µM. Also, in test [3], the “Serratia marcescens MITC95” value came to 25 µM. Moreover, the IC50 on IMP-1 is 701 nM; at NDM-1 it was 14.7 nM; on VIM-1 (setting [4]), 8.98 nM.

As to `Cc1cc(N)ncc1Cc1cccc(S(N)(=O)=O)c1-c1nn[nH]n1` [Example 573, 3-((6-amino-4-methylpyridin-3-yl)methyl)-2-(2H-tetrazol-5-yl)benzenesulfonamide], in test [1], the “Escherichia coli MITC95” value was found to be 0.7813 µM. The “Klebsiella pneumoniae MITC95” value in test [2] was determined as 12.5 µM. Moreover, the “Serratia marcescens MITC95” value in test [3] was found to be 12.5 µM. For the same compound, the IC50 at IMP-1 worked out at 668 nM; at NDM-1, 38.6 nM; at VIM-1 (setting [4]), 41.4 nM.

For `Nc1ccc(-c2ccc(C[C@H]3CC[C@@H](N)CC3)c(S(N)(=O)=O)c2-c2nnn[nH]2)cn1` [Example 574, 6-(((1s,4s)-4-aminocyclohexyl)methyl)-3-(6-aminopyridin-3-yl)-2-(2H-tetrazol-5-yl)benzenesulfonamide], the “Escherichia coli MITC95” value in test [1] turned out to be 0.3906 µM. Moreover, in test [2], the “Klebsiella pneumoniae MITC95” value worked out at 3.125 µM. Also, the “Serratia marcescens MITC95” value in test [3] was 3.125 µM. In addition, the IC50 was 35.9 nM at IMP-1, 1.5 nM on NDM-1 and 7.94 nM at VIM-1 (setting [4]).

Turning to `Nc1ccc(-c2ccc(C[C@H]3CC[C@H](N)CC3)c(S(N)(=O)=O)c2-c2nnn[nH]2)cn1` [Example 575, 6-(((1r,4r)-4-aminocyclohexyl)methyl)-3-(6-aminopyridin-3-yl)-2-(1H-tetrazol-5-yl)benzenesulfonamide], the “Escherichia coli MITC95” value in test [1] was determined as 0.3906 µM. Moreover, the “Klebsiella pneumoniae MITC95” value in test [2] was found to be 6.25 µM. The “Serratia marcescens MITC95” value in test [3] worked out at 3.125 µM. Besides, the IC50 at IMP-1 was 59.5 nM; on NDM-1, 3.15 nM; at VIM-1 (setting [4]) it was 6.98 nM.

Consider `Nc1ccc(-c2ccc(CC3CCNCC3)c(S(N)(=O)=O)c2-c2nnn[nH]2)cn1` [Example 576, 3-(6-amino-3-pyridyl)-6-(4-piperidylmethyl)-2-(1H-tetrazol-5-yl)benzenesulfonamide], for which, in test [1], the “Escherichia coli MITC95” value worked out at 0.5969 µM. The “Klebsiella pneumoniae MITC95” value in test [2] was found to be 4.24 µM. Also, in test [3], the “Serratia marcescens MITC95” value amounted to 6.323 µM. Further, the half-inhibitory concentration (IC50) on IMP-1 was determined as 164 nM; at NDM-1, 12.3 nM; at VIM-1 (VIM-1 IC50, VIM-1 enzyme) it was 24.8 nM.

Turning to `Nc1ccc(-c2ccc(CC[C@H]3CC[C@H](N)CC3)c(S(N)(=O)=O)c2-c2nnn[nH]2)cn1` [Example 577, 6-(2-((1r,4s)-4-aminocyclohexyl)ethyl)-3-(6-aminopyridin-3-yl)-2-(1H-tetrazol-5-yl)benzenesulfonamide], in test [1], the “Escherichia coli MITC95” value is 0.7813 µM. Also, the “Klebsiella pneumoniae MITC95” value in test [2] is 12.5 µM. Further, in test [3], the “Serratia marcescens MITC95” value was found to be 3.125 µM. The IC50 worked out at 29.6 nM at IMP-1, 2.47 nM on NDM-1 and 10.4 nM on VIM-1 (setting [4]).

Consider `Nc1ccc(-c2ccc(CC[C@H]3CC[C@@H](N)CC3)c(S(N)(=O)=O)c2-c2nnn[nH]2)cn1` [Example 578, 6-(2-((1s,4r)-4-aminocyclohexyl)ethyl)-3-(6-aminopyridin-3-yl)-2-(1H-tetrazol-5-yl)benzenesulfonamide], for which the “Escherichia coli MITC95” value in test [1] was 3.125 µM. The “Klebsiella pneumoniae MITC95” value in test [2] was found to be 50 µM. Moreover, in test [3], the “Serratia marcescens MITC95” value is 12.5 µM. Further, the IC50 was determined as 47.1 nM on IMP-1, 1.85 nM at NDM-1 and 11.1 nM at VIM-1 (setting [4]).

Take `NC[C@H]1CC[C@H](Cc2ccc(-c3ccc(N)nc3)c(-c3nnn[nH]3)c2S(N)(=O)=O)CC1` [Example 579, 6-(((1r,4r)-4-(aminomethyl)cyclohexyl)methyl)-3-(6-aminopyridin-3-yl)-2-(1H-tetrazol-5-yl)benzenesulfonamide]: the “Escherichia coli MITC95” value in test [1] was 0.7813 µM. The “Klebsiella pneumoniae MITC95” value in test [2] turned out to be 12.5 µM. Also, the “Serratia marcescens MITC95” value in test [3] is 3.125 µM. Moreover, the IC50 on IMP-1 worked out at 17.8 nM; on NDM-1, 1.64 nM; on VIM-1 (VIM-1 IC50, VIM-1 enzyme), 3.12 nM.

On to `NC[C@H]1CC[C@@H](Cc2ccc(-c3ccc(N)nc3)c(-c3nnn[nH]3)c2S(N)(=O)=O)CC1` [Example 580, 6-(((1s,4s)-4-(aminomethyl)cyclohexyl)methyl)-3-(6-aminopyridin-3-yl)-2-(1H-tetrazol-5-yl)benzenesulfonamide], for which, in test [1], the “Escherichia coli MITC95” value was determined as 1.563 µM. In test [2], the “Klebsiella pneumoniae MITC95” value stood at 12.5 µM. In addition, in test [3], the “Serratia marcescens MITC95” value was 6.25 µM. Further, the IC50 on IMP-1 is 22.7 nM; at NDM-1 it was 0.869 nM; at VIM-1 (VIM-1 IC50, VIM-1 enzyme), 13.4 nM.
